Entries after “also recorded” stand apart in the source; their conditions may differ.
Key:
[1] = system: AVP type V1a and V2 receptors; settings: cited from earlier work
ERK phosphorylation = assay: Total and phosphoERK after AVP stimulation of 22Rv1 with AVPR1a antagonist pretreatment (FIG. 18); assay type: cell-based, human; settings: 10 nM AVP; for block of AVP-stimulated phosphoERK: antagonist pretreatment
Procedure: Total and phosphoERK levels were assessed following stimulation of 22Rv1 with 10 nM AVP for 25 minutes and pretreatment with AVPR1a antagonist (or vehicle control).

22Rv1 xenografts = assay: Pilot 22Rv1 xenograft in castrated nude mice, Relcovaptan IP; assay type: in vivo; settings: 2.5 mg/kg IP, 5 times per week
Procedure: FIG. 8. […] 22RV1 cells (2×106) resuspended in BD Matrigel were injected into both hind flanks of castrated nude mice (n=8). […] Top graph, once palpable, tumor size was measured five days per week. Significance was determined using a Student's t-test comparing to vehicle controls (* p<0.05). Lower graph, mice were weighed five days per week.

VCaP xenografts = assay: Castration resistant VCaP xenografts in SCID mice, oral Relcovaptan; assay type: in vivo; settings: 50 mg/kg daily oral gavage, 14 days
Procedure: Subcutaneous VCaP xenografts (bilateral) were established in SCID mice. Mice were castrated when tumors reached 250-300 mm^3. […] Circulating prostate specific antigen (PSA) was measured by ELISA in mice prior to tumor xenografting (baseline), at the time of castration (pre-treatment) and at the time of sacrifice (post-treatment).

[2] = system: 22Rv1, VCaP and RWPE1 cells; assay: Relcovaptan on prostate cancer cell growth / anchorage independent growth (Example 10); assay type: cell-based, human
Procedure: The effect of an AVPR1a antagonist on the anchorage independent growth of a castration-resistant prostate cancer cell line (i.e., 22Rv1) was evaluated.

PC3 cells [3] = assay: SR49059 treatment, cell number and trypan blue cell death, PC3; assay type: cell-based, human; settings: low nanomolar concentrations, five days
Procedure: (§1) FIGS. 7A-7I. Pharmacologic blockade of AVPR1a decreases human prostate cancer cell but not normal prostate epithelial cell proliferation and selectively kills human prostate cancer cells. (A) 22Rv1, (B) CWR-R1, (C) PC3, and (D) RWPE-1 cells were treated with vehicle or SR49059 at the indicated concentrations and harvested five days post treatment. A representative experiment (of four) was performed in triplicate and data are plotted as cell number (thousands)±SD. Significance was determined using a Student's t-test comparing to vehicle controls (**, p<0.01; ***, p<0.001). (E) 22Rv1, (F) CWR-R1, (G) PC3 or (H) RWPE-1 cells were plated and grown as described above. Adherent and floating cells were harvested and cells that stained with trypan blue or that excluded stain were counted. A representative experiment (of four) was performed in triplicate. Significance was determined using a Student's t-test comparing to vehicle controls (**, p<0.01; ***, p<0.001). (I) Lysates from cells in (A)-(D) were immunoblotted with antibodies that recognize cleaved PARP and actin.

CWR-R1 cells [4] = assay: SR49059 treatment, cell number and trypan blue cell death, CWR-R1; assay type: cell-based, human; settings: low nanomolar concentrations, five days
Procedure: as §1

22Rv1 cells [5] = assay: SR49059 treatment, cell number and trypan blue cell death, 22Rv1; assay type: cell-based, human; settings: low nanomolar concentrations, five days
Procedure: as §1

cleaved PARP = assay: Immunoblot for cleaved PARP after Relcovaptan treatment; assay type: cell-based, human
Procedure: as §1

ERK1/2 phosphorylation = assay: Phospho-ERK1/2 immunoblot, AVP plus/minus Relcovaptan (FIG. 10); assay type: cell-based, human; settings: 22Rv1 or CWR-R1, 25 min
Excerpt: FIG. 10. […] Lysates were immunoblotted for phospho-ERK1/2 and total ERK1/2.

RWPE1 cells [6] = assay: SR49059 treatment, cell number and trypan blue cell death, RWPE-1 normal prostate epithelial cells; assay type: cell-based, human
Procedure: as §1

LNCaP cells = assay: Relcovaptan treatment of androgen dependent LNCaP cells (data not shown); assay type: cell-based, human
RWPE1 cells [7] = assay: shAVPR1a depletion, growth curves and trypan blue cell death, RWPE1; assay type: cell-based, human; settings: RWPE1 stably expressing shAVPR1a vs shGFP
Excerpt: (§2) FIGS. 3A-3D. Depletion of AVPR1a decreases aggressive prostate cancer cell proliferation. […] Live cells (trypan blue exclusion) were counted at the indicated times (hr). Significant differences (p<0.05) in proliferation between shGFP and shAVPR1a-transduced cells occurred by 48-72 hr in CRPC (A-C) but not in normal prostate epithelial cells, RWPE-1 (D). Lower panels quantify AVPR1a mRNA depletion by shRNA in each cell line.
(§3) FIGS. 4A-4E. Depletion of AVPR1a promotes death of aggressive prostate cancer cells. (A) 22Rv1, (B) CWR-R1, (C) PC3 or (D) RWPE-1 cells stably expressing either plk0.1-shGFP or -shAVPR1a were plated and grown as in FIG. 3. Adherent and floating cells were harvested and cells that stained with trypan blue or that excluded stain were counted. Data represent three independent experiments performed in triplicate. Significance was determined using a Student's t-test comparing to shGFP controls (***, p<0.001). (E) Cell lysates were immunoblotted with antibodies that recognize cleaved PARP, cyclin A, and actin.

[8] = system: cleaved PARP, Cyclin A, p-RB; assay: Immunoblot of apoptosis and G1/S cell-cycle markers after AVPR1a depletion; assay type: cell-based, human
Procedure: as §3
(§4) This finding is significant as AR splice variants are a proposed mechanism of resistance to drugs that target full length AR including the newer agents, abiraterone and enzalutamide (6,7). Thus, targeting AVPR1a may be a strategy to overcome therapeutic resistance to these next generation drugs.
Next, Western-blot analysis was performed in PC3, 22Rv1 and LNCaP Abl (CRPC) and RWPE1 (non-tumorigenic prostate epithelial cells) to examine G1/S cell-cycle markers: Cyclin A, p-RB or P27.

22Rv1 cells [9] = assay: shAVPR1a depletion, growth curves and trypan blue cell death, 22Rv1; assay type: cell-based, human; settings: 22Rv1 stably expressing shAVPR1a vs shGFP
Excerpt: as §2, §3

CWR-R1 cells [10] = assay: shAVPR1a depletion, growth curves and trypan blue cell death, CWR-R1; assay type: cell-based, human; settings: CWR-R1 stably expressing shAVPR1a vs shGFP
Excerpt: as §2, §3

[11] = system: 22Rv1, CWR-R1 or PC3 cells; assay: Soft agar anchorage independent growth after AVPR1a depletion; assay type: cell-based, human
Procedure: FIG. 6. AVPR1a is necessary for anchorage independent growth of human prostate cancer cells. The growth in soft agar of 22Rv1, CWR-R1 or PC3 cells stably expressing the indicated shRNA vectors was assessed. Average colony number per plate±SEM is plotted. Data represent two independent experiments performed in triplicate. Significance was determined using a Student's t-test comparing to shGFP controls (***, p<0.001).
as §4
Next, PC3 and 22RV1 cells (CRPC cell lines) in which AVPR1a was depleted (or control shGFP) were cultured in soft agar for three weeks to assess anchorage independent growth (anoikis resistance).

[12] = system: CRPC cells (PC3, 22RV1, LNCaP-abl, C4-2, CWR-R1); assay: shAVPR1a depletion, live cell counting, CRPC cells (Example 8); assay type: cell-based, human
Excerpt: (§5) (● shGFP served as a control, SEQ ID NO: 5-[…] A summary of the human prostate cell lines used is provided below in Table 1:
(§6) Data represent three independent experiments performed in triplicate for all cell lines except C4-2, which was done one time in triplicate. […] A second distinct AVPR1a shRNA produced similar results (data not shown).

[13] = system: androgen dependent cells, LNCaP, VCaP and non-tumorigenic prostate epithelial RWPE1 cells; assay: shAVPR1a depletion, live cell counting, androgen dependent and normal cells (Example 8); assay type: cell-based, human
Excerpt: as §5, §6

[14] = system: full length AR and AR splice variants; assay: Immunoblot of AR after AVPR1a depletion in 22Rv1; assay type: cell-based, human
Excerpt: FIG. 5. AVPR1a knock down results in down-regulation of androgen receptor (AR) and AR splice variant expression in human prostate cancer cells. […] ARdeltaLBD refers to C-terminally truncated AR splice variants such as AR3.
as §4

PC3 cells [15] = assay: shAVPR1a depletion, growth curves and trypan blue cell death, PC3; assay type: cell-based, human; settings: PC3 stably expressing shAVPR1a vs shGFP
Excerpt: as §2, §3

22Rv1, CWR-R1, PC3 cells = assay: AVP stimulation of castration resistant prostate cancer cell proliferation (FIG. 9); assay type: cell-based, human; settings: 1 nM AVP; six days
Procedure: (§7) FIG. 9A-9D. […] (A) 22Rv1, (B) CWR-R1, (C) PC3, or (D) RWPE-1 cells were plated at 10,000 cells/well in 24 well dishes and then treated with vehicle or arginine vasopressin (AVP) at the indicated concentrations the following day. Media were changed every day. Cells were harvested six days post treatment. Data represent four experiments performed in triplicate and are plotted as fold (treatment/vehicle)±SEM. Significance was determined using a Student's t-test comparing to vehicle controls (**, p<0.01).

22Rv1 cells [16] = assay: AVP treatment of 22Rv1 cells, live cell counting (Example 9); assay type: cell-based, human; settings: 1 nM, 10 nM or 1 μM AVP, six days
Procedure: (§8) The effect of arginine vasopressin on the proliferation of a castration-resistant prostate cancer cell line (i.e., 22Rv1) was evaluated. Briefly, 22RV1 cells were treated with 1 nM, 10 nM or 1 μM arginine vasopressin (AVP) for six days followed by live cell counting.

RWPE1 cells [17] = assay: AVP effect on normal prostate epithelial cell proliferation; assay type: cell-based, human
Procedure: as §7, §8

Compound: Cc1nc2c([nH]1)-c1ccccc1N(C(=O)c1ccc(NC(=O)c3ccccc3-c3ccccc3)cc1)CC2 [Conivaptan]
- AVP receptor blockade / selectivity [1]: non-selectively blocks both AVP type V1a and V2 receptors

Compound: COc1ccc(S(=O)(=O)N2c3ccc(Cl)cc3[C@](O)(c3ccccc3Cl)[C@@H]2C(=O)N2CCC[C@H]2C(N)=O)cc1OC [Relcovaptan]
- block of AVP-stimulated phosphoERK (ERK phosphorylation): blocks ERK signaling
- block of AVP-stimulated phosphoERK (ERK phosphorylation; listed as relcovaptan): blocked
- adverse effects / toxicity (22Rv1 xenografts): no adverse effects; also recorded: lack of toxicity
- tumor growth (22Rv1 xenografts; castrated nude mice): significantly decreased tumor growth at early time points; also recorded: decreases CRPC in vivo growth at early time points
- body weight vs controls (VCaP xenografts): no loss of weight
- growth of castration resistant VCaP xenografts (VCaP xenografts; started seven days after castration): significantly slowed the growth; also recorded: slows growth of VCaP tumors
- circulating PSA levels (VCaP xenografts; ELISA): stabilization of PSA levels
- anchorage independent growth ([2]; 10 μM or 25 μM, six days, FIG. 17): inhibits prostate cancer cell anchorage independent growth
- prostate cancer cell proliferation ([2]; FIG. 16): inhibits prostate cancer cell proliferation
- cell death (PC3 cells [3]): promotes cell death; also recorded: promoted CRPC cell death
- proliferation (PC3 cells [3]): inhibited proliferation
- cell death (CWR-R1 cells [4]): promoted CRPC cell death
- proliferation (CWR-R1 cells [4]): inhibited proliferation
- cell death (22Rv1 cells [5]): promoted CRPC cell death
- proliferation (22Rv1 cells [5]): inhibited proliferation
- cleavage of PARP (cleaved PARP; PC cells): cleavage of PARP
- cleavage of PARP (cleaved PARP; normal prostate cells): not normal prostate cells
- inhibition of AVP-stimulated ERK phosphorylation (ERK1/2 phosphorylation; 1 nM AVP plus 1 nM Relcovaptan): inhibited this phosphorylation of ERK
- cell proliferation (RWPE1 cells [6]; 1-10 nM): no effect
- cell survival (RWPE1 cells [6]; 1-10 nM): no effect
- cell death (RWPE1 cells [6]; doses as high as 10 μM, data not shown): did not promote RWPE1 cell death
- cell death (LNCaP cells): approx. 20%
- growth (LNCaP cells): inhibited growth inhibition

Compound: shAVPR1a: selective shRNA to AVPR1a, SEQ ID NO: 2 (hairpin printed as SEQ ID NO: 4 in b155) (GGTATGTGGAAGGACTCGCCTAAATCTTC)
- cell death (RWPE1 cells [7]): not the normal human prostate epithelial RWPE1 cells
- PARP cleavage ([8]; AVPR1a-depleted PC cells): observed
- cyclin A ([8]; CRPC lines PC3, 22Rv1, LNCaP Abl, Example 8): decreased cyclin A
- phosphorylation of the retinoblastoma protein ([8]; PC3 and 22Rv1, Example 8): decreased phosphorylation of the retinoblastoma protein
- Cyclin A levels (G1 to S progression) ([8]; PC cells, Example 1): decreased levels of Cyclin A
- phosphorylation of the retinoblastoma protein ([8]; RWPE1, Example 8): not RWPE1 cells
- PARP cleavage ([8]; RWPE1 cells): not in RWPE1 cells
- cell death (22Rv1 cells [9]): increased cell death
- cell proliferation (22Rv1 cells [9]): decreased cell proliferation
- cell death (CWR-R1 cells [10]): increased cell death
- cell proliferation (CWR-R1 cells [10]): decreased cell proliferation
- anchorage independent growth ([11]; PC3 and 22RV1, soft agar, three weeks, Example 8): significantly reduced anchorage independent growth
- anchorage independent growth in soft agar ([11]; three PC cell lines (22Rv1, CWR-R1, PC3)): inhibition of anchorage independent growth in soft agar
- proliferation of CRPC cells [12]: greatly decreased proliferation
- androgen dependent and normal prostate epithelial cell proliferation [13]: less effect
- levels of full length AR and AR splice variants [14]: decreased levels of full length AR and AR splice variants
- cell death (PC3 cells [15]): increased cell death
- cell proliferation (PC3 cells [15]): decreased cell proliferation

Compound: NC(=O)CC[C@@H]1NC(=O)[C@H](Cc2ccccc2)NC(=O)[C@H](Cc2ccc(O)cc2)NC(=O)[C@@H](N)CSSC[C@@H](C(=O)N2CCC[C@H]2C(=O)N[C@@H](CCCN=C(N)N)C(=O)NCC(N)=O)NC(=O)[C@H](CC(N)=O)NC1=O [AVP, arginine vasopressin]
- phosphoERK levels (ERK phosphorylation; 25 minutes): increased phosphoERK levels
- PC cell proliferation (22Rv1, CWR-R1, PC3 cells): increased PC cell proliferation; also recorded: stimulates castration resistant prostate cancer cell proliferation
- CRPC proliferation (22Rv1 cells [16]): stimulated CRPC proliferation
- ERK 1/2 phosphorylation (activation) (ERK1/2 phosphorylation; 1 nM AVP): activated ERK 1/2; also recorded: stimulates ERK1/2 phosphorylation
- growth of normal RWPE1 cells (RWPE1 cells [17]; 1 nM AVP, six days): did not stimulate growth
- RWPE1 cell proliferation (RWPE1 cells [17]; Example 9, data not shown): did not stimulate RWPE1 cell proliferation
- proliferation of RWPE-1 (RWPE1 cells [17]; higher AVP doses): Decreased proliferation

Reference: US10231952B2, “Use of arginine vasopressin receptor antagonists for the treatment of prostate cancer” (UNIVERSITY OF MIAMI, priority 2014, dated 2019)
